Structures can show the parent of a compound that is named as a salt. Where two headings read alike, the source gives them in different places.

Consider twelve compounds from patent publication US4088772A, “Methanodibenzocycloheptapyrroles” (E. I. Du Pont de Nemours and Company, priority 1975, dated 1978).

One data set concerns female CF1 S mice. Description: Mouse spontaneous motor activity (activity cage). It counts as in vivo, mouse (CF1 S female). As to conditions: 0.5 h, read-out: Exploratory Loss Activity Cage ED50. The procedure:
Mouse Spontaneous Motor Activity (Activity Cage)
Twenty-four per dose, 16- 20 g or 18-22 g, female CF1 S mice, fasted 16- 22 hours, are intubated (in pairs) with drug at t doses such as 0, 1, 3, 9, 27 and 81 mg/kg in 10 ml/kg of aqueous 1% methylcellulose. The mice are then put in separate "shoe-box" cages (12 × 7.5 × 5.3 inches plastic with a 0.33 inch mesh stainless steel lid), and 20 minutes after intubation the animals in pairs are moved to covered Woodard Photoelectric Activity Chambers (central light source type measurement floor area = 96 in^2). Ten minutes later (30 minutes after dosing) a 5-minute count is taken. Counting chamber characteristics are balanced out by counting 2 pairs of mice from each dose level in each of 6 different counting chambers. Half of each test is run in the a.m. and the other half is run in the p.m. to minimize "biological clock" variations.
Canad. Biol. 20, 239-50 (1961), raw counts are thus transformed for statistical treatment (Student's t test). The means of the square roots then are squared and an ED50 for stimulation or depression (or both) is determined graphically.

A further data set relates to female white mice. In words: animal or person. Particulars: Mus musculus, po, oral, mice.
The next data set is described as follows: in vivo. As to conditions: mouse, in vivo, po.
The test system of data set [1] is phenylquinone-induced writhing. In words: Phenylquinone writhing test (analgesia). The format is in vivo, mouse (Carworth CF1 S female). Particulars: Mus musculus. An excerpt: This mouse test is predictive of analgesic response in humans. [E. Siegmund, R. Cadmus and G. Lee, Proc. Soc.
ED50 values were obtained graphically from the data.
On the technique in general: In writhing tests, fewer writhes than in controls are read as antinociception.

The mark [2] stands for this setting: read-out: Catatonia ED50, Table 1.
Setting [3] is: read-out: Exploratory Loss Visual ED50, Table 1.
Where [4] appears, read: read-out: Muscle Tone ED50, Table 1.
[5] abbreviates: read-out: Reflexes Grip ED50, Table 1.
The mark [6] stands for this setting: read-out: Reflexes Lift ED50, Table 1.
Setting [7] is: read-out: Reflexes Pinna ED50, Table 1.
Where [8] appears, read: Table 1, oral, mice, 30 minutes after dosing.
Where [9] appears, read: read-out: Catatonia ED50, Table III.
[10] abbreviates: read-out: Exploratory Loss Visual ED50, Table III.
The mark [11] stands for this setting: read-out: Muscle Tone ED50, Table III.
[12] abbreviates: read-out: Ptosis ED50, Table III.
Setting [13] is: read-out: Reflexes Grip ED50, Table III.
The mark [14] stands for this setting: read-out: Reflexes Lift ED50, Table III.
Where [15] appears, read: read-out: Reflexes Pinna ED50, Table III.

By ED50 is commonly meant the dose at which the effect has come halfway, by size or by number of responders. As a reminder, the LD50 is the dose expected to kill half of the subjects tested. Higher therefore signals lower toxicity. As to `c1ccc2c(c1)[C@@H]1C[C@@]3(CN(CC4CCC4)C[C@H]23)c2ccccc21` (relative stereo) [Example 19, 2-Cyclobutylmethyl-2,3,8,12b-tetrahydro-1H-3a,8-methanodibenzo[3,4:6,7]cyclohepta[1,2-c]pyrrole], the median effective dose (ED50) with female CF1 S mice (po) turned out to be 1 mg/kg; in the data set with female white mice (setting [2]) it was 20 mg/kg; with female white mice (setting [3]) it was 20 mg/kg; in the data set on female white mice (setting [4]), 12 mg/kg; in the data set with female white mice (read-out: Ptosis ED50, Table 1) it was 7 mg/kg; in the data set with female white mice (setting [5]), 200 mg/kg. Besides, the ED50 in the data set with female white mice (setting [6]) was 20 mg/kg; with female white mice (setting [7]) it was 12 mg/kg; in “in vivo” (Tremors ED50, Table 1, mice) it was above 324 mg/kg; in data set [1] (Table 1, oral, mice) it was 5 mg/kg. Also, the LD50 at 24 h in “in vivo” is above 324 mg/kg.
For `c1ccc2c(c1)[C@@H]1C[C@@]3(CN(C[C@@H]4C[C@H]5CC[C@@H]4C5)C[C@H]23)c2ccccc21` (relative stereo) [Example 35, 2-(2-Exo-bicyclo[2.2.1]heptylmethyl)-2,3,8,12b-tetrahydro-1H-3a,8-methanodibenzo[3,4:6,7]cyclohepta[1,2-c]pyrrole], the ED50 is 3.3 mg/kg in the data set on female CF1 S mice (setting [8]); 15 mg/kg in the data set on female white mice (setting [2]); 8.6 mg/kg in the data set with female white mice (setting [3]); 12 mg/kg with female white mice (setting [4]); 5.1 mg/kg with female white mice (read-out: Ptosis ED50, Table 1); above 324 mg/kg with female white mice (setting [5]). Further, the ED50 in the data set on female white mice (setting [6]) is 29 mg/kg; in the data set with female white mice (setting [7]), 21 mg/kg; in the data set “in vivo”, above 324 mg/kg; in data set [1] (po, Table 1, mice), 6.2 mg/kg. In the data set “in vivo”, this compound displayed a median lethal dose (LD50) at 24 h above 324 mg/kg.
As to `c1ccc(CN2CC3c4ccccc4C4CC3(C2)c2ccccc24)cc1` (centres unmarked) [Example 4, 2-Benzyl-2,3,8,12b-tetrahydro-1H-3a,8-methanodibenzo[3,4:6,7]cyclohepta[1,2-c]pyrrole], the ED50 was 4.6 mg/kg in the data set with female CF1 S mice (setting [8]); 20 mg/kg in the data set on female white mice (setting [2]); 20 mg/kg in the data set with female white mice (setting [3]); 20 mg/kg with female white mice (setting [4]); 20 mg/kg with female white mice (read-out: Ptosis ED50, Table 1); above 324 mg/kg in the data set on female white mice (setting [5]). For the same compound, the 50% effective dose (ED50) is 36 mg/kg with female white mice (setting [6]); 300 mg/kg with female white mice (setting [7]); above 324 mg/kg in the data set “in vivo”; 9.4 mg/kg in data set [1] (po, Table 1, mice). The median lethal dose (LD50) at 24 h in the data set “in vivo” is above 324 mg/kg.
With `CCCCCCN1CC2c3ccccc3C3CC2(C1)c1ccccc13` (centres unmarked) [Example 14, 2-n-Hexyl-2,3,8,12 b-tetrahydro-1H-3a,8-methanodibenzo[3,4:6,7]cyclohepta[1,2-c]pyrrole], the ED50 stood at 1.3 mg/kg in the data set with female CF1 S mice (setting [8]); 5.6 mg/kg with female white mice (setting [2]); 7 mg/kg in the data set with female white mice (setting [3]); 4.1 mg/kg with female white mice (setting [4]); 4.5 mg/kg in the data set with female white mice (read-out: Ptosis ED50, Table 1); 187 mg/kg in the data set with female white mice (setting [5]). In addition, the 50% effective dose (ED50) in the data set on female white mice (setting [6]) is 8.6 mg/kg; in the data set on female white mice (setting [7]), 11 mg/kg; in the data set “in vivo”, 326 mg/kg; in data set [1] (po, Table 1, mice), 2.6 mg/kg. The median lethal dose (LD50) at 24 h in the data set “in vivo” is above 324 mg/kg.
As to `c1ccc2c(c1)C1CC3(CN(CCCCC4CCCCC4)CC23)c2ccccc21` (centres unmarked) [Example 31, 2-(4-Cyclohexylbutyl)-2,3,8,12b-tetrahydro-1H-3a,8-methanodibenzo[3,4:6,7]cyclohepta[1,2-c]pyrrole], the ED50 is 26 mg/kg in the data set with female white mice (setting [2]); 21 mg/kg in the data set on female white mice (setting [3]); 24 mg/kg with female white mice (setting [4]); 17 mg/kg with female white mice (read-out: Ptosis ED50, Table 1); above 324 mg/kg in the data set on female white mice (setting [5]); 37 mg/kg with female white mice (setting [6]). The ED50 was 32 mg/kg in the data set with female white mice (setting [7]); above 324 mg/kg in the data set “in vivo”; 14 mg/kg in data set [1] (po, Table 1, mice). In “in vivo”, this compound yielded a median lethal dose (LD50) at 24 h above 324 mg/kg.
For `c1ccc2c(c1)C1CC3(CN(CC4CCCCCC4)CC23)c2ccccc21` (centres unmarked) [Example 32, 2-Cycloheptylmethyl-2,3,8,12b-tetrahydro-1H-3a,8-methanodibenzo[3,4:6,7]cyclohepta[1,2-c]pyrrole], the 50% effective dose (ED50) was 12 mg/kg in the data set with female white mice (setting [2]); 7 mg/kg in the data set on female white mice (setting [3]); 36 mg/kg in the data set on female white mice (setting [4]); below 4 mg/kg in the data set with female white mice (read-out: Ptosis ED50, Table 1); 200 mg/kg in the data set on female white mice (setting [5]); 20 mg/kg with female white mice (setting [6]). For the same compound, the ED50 in the data set on female white mice (setting [7]) was 60 mg/kg; in the data set “in vivo” it was above 324 mg/kg; in data set [1] (po, Table 1, mice), 2.9 mg/kg. In the data set “in vivo”, the LD50 at 24 h was above 324 mg/kg.
On to `CC(C1CCCC1)N1C[C@@H]2c3ccccc3[C@@H]3C[C@@]2(C1)c1ccccc13` (some centres unmarked) [Example 50, 2-(1-Cyclopentylethyl)-2,3,8,12b-tetrahydro-1H-3a,8-methanodibenzo[3,4:6,7]cyclohepta[1,2-c]pyrrole], for which the ED50 amounted to 20 mg/kg with female white mice (setting [2]); 20 mg/kg in the data set on female white mice (setting [3]); 36 mg/kg in the data set on female white mice (setting [4]); 60 mg/kg with female white mice (read-out: Ptosis ED50, Table 1); 300 mg/kg in the data set on female white mice (setting [5]); 60 mg/kg with female white mice (setting [6]). The ED50 in the data set on female white mice (setting [7]) was 36 mg/kg; in “in vivo” it was above 324 mg/kg; in data set [1] (po, Table 1, mice) it was 23 mg/kg. In “in vivo”, this compound returned an LD50 at 24 h above 324 mg/kg.
As for `CC1CCCC1CN1C[C@@H]2c3ccccc3[C@@H]3C[C@@]2(C1)c1ccccc13` (some centres unmarked) [Example 51, 2-(2-Methylcyclopentylmethyl)-2,3,8,12b-tetrahydro-1H-3a,8-methanodibenzo[3,4:6,7]cyclohepta[1,2-c]pyrrole], the ED50 in the data set on female white mice (setting [2]) was determined as 60 mg/kg; in the data set with female white mice (setting [3]), 100 mg/kg; in the data set with female white mice (setting [4]), 60 mg/kg; in the data set on female white mice (read-out: Ptosis ED50, Table 1) it was 36 mg/kg; with female white mice (setting [5]), 300 mg/kg; in the data set on female white mice (setting [6]) it was 60 mg/kg. Moreover, the ED50 with female white mice (setting [7]) was 36 mg/kg; in “in vivo” it was above 324 mg/kg; in data set [1] (po, Table 1, mice), 10 mg/kg. In the data set “in vivo”, the median lethal dose (LD50) at 24 h is above 324 mg/kg.
`CC1CCC(CN2C[C@@H]3c4ccccc4[C@@H]4C[C@@]3(C2)c2ccccc24)C1` (some centres unmarked) [Example 52, 2-(3-Methylcyclopentylmethyl)-2,3,8,12b-tetrahydro-1H-3a,8-methanodibenzo[3,4:6,7]cyclohepta[1,2-c]-pyrrole]: the median effective dose (ED50) in the data set on female white mice (setting [2]) is 12 mg/kg; in the data set with female white mice (setting [3]) it was 12 mg/kg; in the data set on female white mice (setting [4]), 12 mg/kg; in the data set with female white mice (read-out: Ptosis ED50, Table 1), 7 mg/kg; in the data set with female white mice (setting [5]) it was 200 mg/kg; in the data set with female white mice (setting [6]) it was 12 mg/kg. In addition, the ED50 with female white mice (setting [7]) was 7 mg/kg; in the data set “in vivo”, above 324 mg/kg; in data set [1] (po, Table 1, mice) it was 5 mg/kg. In the data set “in vivo”, this compound gave a median lethal dose (LD50) at 24 h above 324 mg/kg.
For the compound `c1ccc2c(c1)[C@@H]1C[C@@]3(CN(CC4CCCO4)C[C@H]23)c2ccccc21` (some centres unmarked) [Example 62, 2-(2-Tetrahydrofurylmethyl)-2,3,8,12b-tetrahydro-1H-3a,8-methanodibenzo[3,4:6,7]cyclohepta[1,2-c]pyrrole], the median effective dose (ED50) in the data set with female white mice (setting [2]) was found to be 20 mg/kg; in the data set on female white mice (setting [3]) it was 12 mg/kg; in the data set with female white mice (setting [4]), 20 mg/kg; with female white mice (setting [5]) it was 200 mg/kg; in the data set with female white mice (setting [6]), 20 mg/kg; in data set [1] (po, Table 1, mice), 7 mg/kg. The compound further returned an LD50 at 24 h in “in vivo” above 324 mg/kg.
For the compound `CC(O)c1ccc2c(c1)[C@]13C[C@H]2c2ccccc2[C@H]1CN(CC1CCCC1)C3` (stereo partly drawn) [Example 67, 5-(α-Hydroxyethyl)-2-cyclopentylmethyl-2,3,8,12b-tetrahydro-1H-3a,8-methanodibenzo[3,4:6,7]cyclohepta[1,2-c]-pyrrole Hydrochloride], the ED50 came out at 5 mg/kg in the data set on female white mice (setting [9]); 5 mg/kg with female white mice (setting [10]); 6 mg/kg with female white mice (setting [11]); 3.6 mg/kg with female white mice (setting [12]); 187 mg/kg in the data set on female white mice (setting [13]); 21 mg/kg in the data set on female white mice (setting [14]). Besides, the ED50 was determined as 5.6 mg/kg in the data set with female white mice (setting [15]) and 3.4 mg/kg in data set [1] (po, Table III, mice). The LD50 at 24 h in the data set “in vivo” is above 450 mg/kg.
As to `C=CCC(O)c1ccc2c(c1)[C@]13C[C@H]2c2ccccc2[C@H]1CN(CC1CCCC1)C3` (some centres unmarked) [Example 75, 5-[1-(1-Hydroxy-3-butenyl)]-2-cyclopentylmethyl-2,3,8,12b-tetrahydro-1H-3a,8-methanodibenzo[3,4:6,7]cyclohepta[1,2-c]pyrrole Hydrochloride], the 50% effective dose (ED50) worked out at 36 mg/kg in the data set with female white mice (setting [9]); 60 mg/kg in the data set with female white mice (setting [10]); 36 mg/kg with female white mice (setting [11]); 12 mg/kg in the data set with female white mice (setting [12]); 200 mg/kg in the data set on female white mice (setting [13]); 20 mg/kg with female white mice (setting [14]). The median effective dose (ED50) was found to be 7 mg/kg with female white mice (setting [15]) and 11 mg/kg in data set [1] (po, Table III, mice). This compound returned an LD50 at 24 h in “in vivo” above 324 mg/kg.
